Test results taken from article PMC4207771, “Identification and Characterization of Novel Renal Sensory Receptors” (PLoS ONE, 2014).
Read-outs that look alike come from different tables or passages of the source.

Experiments:
Olfr691 = target: T1, Olfr691 (Mus musculus, UniProt Q8VGW5); experiment: dual-luciferase (cAMP/CREB reporter) ligand screen, Olfr691 in HEK293T cells; assay type: cell-based; settings: for Olfr691 response in dual-luciferase assay: chemicals tested individually, screened at 500uM (* also at 100uM); for Relative response (% of 4-pentenoate response) at 500 µM: HEK-293T, 4 h, 0.5 mM ligand, normalized to the response of Olfr691 to the strongest ligand
T1 construct: Lucy (N); expressed in transfected cells; host or cells: HEK293T, co-transfected with RTP1S
T1 sequence (Q8VGW5 1-322): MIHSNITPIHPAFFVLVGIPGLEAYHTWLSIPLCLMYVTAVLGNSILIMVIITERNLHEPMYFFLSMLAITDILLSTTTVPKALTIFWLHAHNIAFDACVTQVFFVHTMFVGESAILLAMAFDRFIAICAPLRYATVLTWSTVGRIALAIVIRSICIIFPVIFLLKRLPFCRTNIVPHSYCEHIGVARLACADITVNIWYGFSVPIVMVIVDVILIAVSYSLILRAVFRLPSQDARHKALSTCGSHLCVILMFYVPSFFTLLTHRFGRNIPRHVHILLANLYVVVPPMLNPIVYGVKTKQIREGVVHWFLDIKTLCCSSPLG

Olfr693 = experiment: dual-luciferase (cAMP/CREB reporter) ligand screen, Olfr693 in HEK293T cells; assay type: cell-based, mouse; design: key: ‘+’ or ‘–‘ in each column indicates if the olfactory receptor responded or had no effect to that specific chemical; -: ‘+’ or ‘–‘ in each column indicates if the olfactory receptor responded or had no effect to that specific chemical; settings: chemicals tested individually, screened at 500uM (* also at 100uM)
Olfr31 = target: T2, Olfr31 (Mus musculus, UniProt Q3KPA7); experiment: dual-luciferase (cAMP/CREB reporter) ligand screen, Olfr31 in HEK293T cells; assay type: cell-based; settings: chemicals tested individually, screened at 500uM (* also at 100uM)
T2 construct: expressed in transfected cells; host or cells: HEK293T, co-transfected with RTP1S
T2 sequence (Q3KPA7 1-317): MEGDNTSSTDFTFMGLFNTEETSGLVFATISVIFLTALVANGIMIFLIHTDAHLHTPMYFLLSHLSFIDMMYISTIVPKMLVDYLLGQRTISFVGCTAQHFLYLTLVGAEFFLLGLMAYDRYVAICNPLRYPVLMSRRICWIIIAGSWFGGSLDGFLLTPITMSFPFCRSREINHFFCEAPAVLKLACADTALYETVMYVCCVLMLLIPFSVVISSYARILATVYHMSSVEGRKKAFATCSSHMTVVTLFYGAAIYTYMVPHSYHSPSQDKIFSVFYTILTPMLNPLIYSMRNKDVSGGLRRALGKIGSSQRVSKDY

Olfr545 = experiment: dual-luciferase (cAMP/CREB reporter) ligand screen, Olfr545 in HEK293T cells; assay type: cell-based, mouse; design: key to Olfr545 response in dual-luciferase assay: ‘+’ or ‘–‘ in each column indicates if the olfactory receptor responded or had no effect to that specific chemical; -: ‘+’ or ‘–‘ in each column indicates if the olfactory receptor responded or had no effect to that specific chemical; settings: chemicals tested individually, screened at 500uM (* also at 100uM)
Olfr99 = experiment: dual-luciferase (cAMP/CREB reporter) ligand screen, Olfr99 in HEK293T cells; assay type: cell-based, mouse; design: key: ‘+’ or ‘–‘ in each column indicates if the olfactory receptor responded or had no effect to that specific chemical; -: ‘+’ or ‘–‘ in each column indicates if the olfactory receptor responded or had no effect to that specific chemical; settings: chemicals tested individually, screened at 500uM (* also at 100uM)

| Structure (SMILES) | Olfr691 response in dual-luciferase assay (Olfr691) | Olfr31 response in dual-luciferase assay (Olfr31) | Olfr691 response (in words) (Olfr691; luciferase assay, co-expressed with RTP1S) | Relative response (% of 4-pentenoate response) at 500 µM (Olfr691) [%] | EC50 (Olfr691; Olfr691 co-expressed with RTP1S in HEK293T cells, 10 µM to 7.5 mM) [µM] | Olfr693 response in dual-luciferase assay (Olfr693) | Olfr545 response in dual-luciferase assay (Olfr545) | Olfr99 response in dual-luciferase assay (Olfr99) | Olfr691 response (in words) (Olfr691) |
| --- | --- | --- | --- | --- | --- | --- | --- | --- | --- |
| CCCCCOC(C)=O [amyl acetate] | - | - |  |  |  | - | - | - |  |
| O=Cc1ccccc1 [benzaldehyde] | - | - |  |  |  | - | - | - |  |
| O=C(O)c1ccccc1 [benzoate] | + | - |  | 34 ± 1 |  | - | - | - | induced Olfr691 responses |
| CCCCCC(=O)O [caproate] | + | - |  | 80 ± 1.4 |  | - | - | - |  |
| O=C/C=C/c1ccccc1 [cinnamaldehyde] | - | - |  |  |  | - | - | - |  |
| OC1CCCCCC1 [cycloheptanol] | - | - |  |  |  | - | - | - |  |
| O=C1CCCCC1 [cyclohexanone] | - | - |  |  |  | - | - | - |  |
| CCOC(=O)c1ccccc1 [ethyl benzoate] | - | - |  |  |  | - | - | - |  |
| N[C@@H](CCC(=O)O)C(=O)O [l-glutamate] | - | - |  |  |  | - | - | - |  |
| CC(=O)c1c(C)c([N+](=O)[O-])c(C(C)(C)C)c([N+](=O)[O-])c1C [musk ketone] | - | - |  |  |  | - | - | - |  |
| CCCCCCCCC(=O)O [nonanoic acid] | - | - |  |  |  | - | - | - |  |
| CCCCCCCC(=O)O [octanoic acid] | + | - |  | 20 ± 0.9 |  | - | - | - | responds |

Second part, led by results:

| Olfr691 response in dual-luciferase assay (Olfr691) | Olfr31 response in dual-luciferase assay (Olfr31) | Olfr691 response (in words) (Olfr691; luciferase assay, co-expressed with RTP1S) | Relative response (% of 4-pentenoate response) at 500 µM (Olfr691) [%] | EC50 (Olfr691; Olfr691 co-expressed with RTP1S in HEK293T cells, 10 µM to 7.5 mM) [µM] | Structure (SMILES) | Olfr693 response in dual-luciferase assay (Olfr693) | Olfr545 response in dual-luciferase assay (Olfr545) | Olfr99 response in dual-luciferase assay (Olfr99) | Olfr691 response (in words) (Olfr691) |
| --- | --- | --- | --- | --- | --- | --- | --- | --- | --- |
| - | - |  |  |  | O=c1[nH]c(=O)c2[nH]c(=O)[nH]c2[nH]1 [Uric acid] | - | - | - |  |
| - | - | not including |  |  | CC(=O)O [acetic acid] | - | - | - |  |
| - | - |  |  |  | C=CCSCC=C [allyl sulfide] | - | - | - |  |
| + | - |  | 55 ± 2.5 |  | CCCC(=O)O [butyrate] | - | - | - |  |
| - | - |  |  |  | Cn1c(=O)c2c(ncn2C)n(C)c1=O [caffeine, reference compound] | - | - | - |  |
| - | - |  |  |  | O=C(O)CC(O)(CC(=O)O)C(=O)O [citric acid] | - | - | - |  |
| + | - |  | 39 ± 3 |  | C/C=C/C(=O)O [crotonic acid] | - | - | - |  |
| - | - |  |  |  | CCCCCCCCCCCC(=O)O [dodecanoic acid] | - | - | - |  |
| - | - |  |  |  | C=CCc1ccc(O)c(OC)c1 [eugenol] | - | - | - |  |
| + | - |  | 41 ± 2.1 |  | CCCCCCC(=O)O [heptanoate] | - | - | - |  |
| + | - |  | 97 ± 10.8 | 1130 | CC(C)C(=O)O [isobutyrate] | - | - | - |  |
| + | - |  | 37 ± 2.7 |  | CC(C)CCC(=O)O [isocaproate] | - | - | - |  |
| - | - |  |  |  | CC(C)[C@H](N)C(=O)O [l-valine] | - | - | - |  |
| - | - |  |  |  | CC(O)C(=O)O (stereo not drawn) [lactic acid] | - | - | - |  |
| - | - |  |  |  | C=CC(C)(O)CCC=C(C)C (stereo not drawn) [linalool] | - | - | - |  |
| - | - |  |  |  | CCCCCCCCC=O [nonanal] | - | - | - |  |
| - | - |  |  |  | CC1(C)C2CCC(=O)C1C2 (stereo not drawn) [nopinone] | - | - | - |  |
| - | - |  |  |  | O=C1CC2CC[C@H]1C2 [norcamphor] | - | - | - |  |
